We go through one substance from US9663789B2, “PME-1 as a biomarker to predict and diagnose endometrial and breast cancer and gene silencing of PME-1 to inhibit epithelial to mesenchymal transition” (MEDICAL DIAGNOSTIC LABORATORIES, LLC, priority 2013, dated 2017).

Holding throughout (type): cell-based, human
In data set [1] the test system is RL95-2 cells. Put plainly: Foci formation assay, RL95-2 cells. The following applies: RL95-2 cells expressing shRNA, compared to control cells. On the procedure: A foci forming assay was used to monitor cell growth. Equal amounts of tumor cells were plated and they were allowed to grow for a determined period of time (see Materials and Methods section for details). The foci that were formed were then stained with the crystal violet dye. Cells were washed 3 times with PBS prior to visualization. Numbers of foci were counted and results were averaged among different experiments.
To determine if the loss of active PME-1 accounted for the observed decrease in foci formation, we first treated RL95-2 cells with siRNA against the 3′-UTR of PPME1 (SEQ ID NO: 5 and SEQ ID NO: 6) to decrease endogenous levels of PME-1. […] The S156A PME-1 mutant is not capable of de methylaing its target, PP2A.
1,000 cells were plated in a six well tissue culture dish in selection media (to include 5 μg/ml puromycin) (InvivoGen). Cells were allowed to adhere and grow in a 5% CO2, 37° C. incubator for 10 to 14 days. Media was replaced every fourth day. Cells were stained with 1% crystal violet (Sigma Aldrich) for five minutes and rinsed with PBS. Colonies were counted and data is presented as the percentage of change compared to the control. All Experiments were repeated at least three times.

For the next data set, the system named is WNT3. Put plainly: qRT-PCR of WNT3 expression in RL95-2 cells. The following applies: RL95-2, qRT-PCR normalized to 18S. How it is done: (§1) Using RL95-2 endometrial cancer cells, we overexpressed PME-1 (FIG. 21A) or depleted PME-1 with shRNA targeted to PME-1 (SEQ ID NO: 2) (FIG. 21B) and confirmed that PME-1 was appropriately expressed.
(§2) Total RNA was extracted with Qiagen RNAEasy kit from RL95-2 cells. cDNA was synthesized using 500 ng-1 μg of RNA and SuperScript VILO c-DNA mix (Life Technologies). Taqman probes and PCR-mix were purchased from Life Technologies. All samples were run in triplicates. Results are representative of three independent experiments in which genes of interest were normalized to the house-keeping gene, 18S or GAPDH, where fold-change was calculated using the ddCt method.
In general terms: Quantitative PCR measures a nucleic acid by following its amplification.

For a further data set, the system named is SFRP1. Put plainly: qRT-PCR of SFRP1 expression in RL95-2 cells. The following applies: RL95-2, qRT-PCR normalized to 18S. On the procedure: as §1, §2
Another data set has as its system PPME1 mRNA. Put plainly: qRT-PCR of PME-1 (PPME1) expression in RL95-2 cells. The following applies: RL95-2 cells stably expressing shRNA, vs shSCR. On the procedure: as §1, §2
The next data set relates to WNT3A. Put plainly: qRT-PCR of WNT3A expression in RL95-2 cells. The following applies: RL95-2, qRT-PCR normalized to 18S. On the procedure:
as §1, §2

In data set [2] the test system is RL95-2 cells. Put plainly: Immunofluorescence of mitotic cells (phosphorylated histone H3 Ser10). The following applies: RL95-2, compared to control cells. How it is done: Endometrial cancer cells were stained for phosphorylated histone H3 on serine 10, a marker of mitotic cells, followed by counterstaining with DAPI (FIG. 12) to identify all cells.
For analysis of patient samples, tissues were blocked for 2 hours with 10% FBS in TBST for at RT, incubated with each primary antibody (together) overnight at 4° C., washed three times for 15 min in TBST, incubated with each secondary fluorescent antibody (together) for 1 hr at RT, washed again as above, stained with DAPI and mounted with cover-slips using vectashield mounting media (Vector Labs). Primary antibodies used were for PME-1 (Santa Cruz), E-cadherin (Millipore), and vimentin (Genscript). 1×10^3RL95-2 cells were plated on a chamber slide and were incubated overnight at 37° C. Slides were fixed with 4% paraformaldehyde (PFA) on ice for two hours. The cells were incubated with the primary antibody to Histone 3 (pH3) phosphorylated at Ser10 (1:200, Cell Signaling Technologies) overnight and developed with the secondary anti-rabbit Alexa-Fluor 555 antibody (Cell Signaling Technologies). DAPI was used as a nuclear counter-stain (Sigma Aldrich). Images were taken with the Nikon Eclipse TE2000 at 20×.

In the next data set the test system is ECC-1 cells. Put plainly: Foci formation assay, ECC-1 cells. The following applies: ECC-1 stable clones, with empty FLAG, PP2A, PP4 or PP6 over-expression, 10 days, vs shSCR. On the procedure:
FIG. 24 depicts results from a study in which stable clones of ECC-1 cells expressing non-targeting scrambled shRNA (shSCR, black bars) or shPPME-1 (white bars) (SEQ ID NO: 2) and were then transfected with FLAG empty vector, FLAG-PPP2CA, FLAG-PPP4C, or FLAG-PPP6C. Cells (3,000) were plated and were allowed to grow for 10 days. Colonies were then stained with crystal violet and counted. The control cells expressing shSCR and transfected with empty FLAG vector were normalized to 100% foci formation. […] Averages of 6 experiments are plotted and statistical significance was calculated with the Student's T test, where *p<0.05, **p<0.01, ***p<0.001.
We performed a foci formation analysis by transfecting: (i) empty FLAG vector, (ii) FLAG-PPP2CA, (iii) FLAG-PPP4C, or (iv) FLAG-PPP6C into ECC-1 cells that stably expressed either (i) shSCR (non-targeting shRNA, black bars) or (ii) shPPME1 (depletes PME-1 levels, white bars) (FIG. 24).
1,000 cells were plated in a six well tissue culture dish in selection media (to include 5 μg/ml puromycin) (InvivoGen). Cells were allowed to adhere and grow in a 5% CO2, 37° C. incubator for 10 to 14 days. Media was replaced every fourth day. Cells were stained with 1% crystal violet (Sigma Aldrich) for five minutes and rinsed with PBS. Colonies were counted and data is presented as the percentage of change compared to the control. […]

“Also recorded” adds a separate entry of the source.

Consider “shRNA (SEQ ID NO: 2): lentiviral shRNA against PPME1, target sequence SEQ ID NO: 2 GCAGCGATTATTAGTAGAGTT, bp 289-309; hairpin SEQ ID NO: 8 (CCGGGCAGCGATTATTAGTAGAGTTCTCGAGAACTCTACTAATAATCGCTGCTTTTT; listed as Homo sapiens)”, for which the decrease in foci in the data set on RL95-2 cells [1] amounted to 75%. Moreover, the WNT3 expression entry with WNT3 is “significantly decreased”. Moreover, the SFRP1 expression entry with SFRP1 is recorded as “significantly increased; also recorded: significant increase in SFRP1 expression”. The “PME-1 knocked down (qRT-PCR, normalized to 18S)” value with PPME1 mRNA is recorded as greater than 50%. In addition, the WNT3A expression result in the data set on WNT3A is “significantly decreased”. Moreover, the “decreased proliferation (phospho-histone H3 positive cells)” value in the data set with RL95-2 cells [2] is roughly 30%. Moreover, the foci formation entry with ECC-1 cells (listed as shPPME1 (SEQ ID NO: 2)) was “significant decrease in foci formation”; with ECC-1 cells (listed as shPPME-1 (SEQ ID NO: 2)), “significant decrease in foci formed”.
